The subject of test [1] is basal locomotor activity of mice. In words: Open field, basal locomotor activity of mice (Example 4A). The format is in vivo, mouse. To be noted: test condition water; 400 mg/kg IP, 30 min pretreatment. How it is done:
(§1) Cariprazine hydrochloride and escitalopram oxalate were evaluated for anti-manic effects using the amphetamine/chlordiazepoxide (AMPH/CDP) hyperactivity test.
(§2) Male C57B1/6J mice from Jackson Laboratories (Bar Harbor, Me.) were used in this study. Mice were received at 6-weeks of age. Upon receipt, mice were assigned unique identification numbers (tail marked) and were group housed with 4 mice/cage. All animals remained housed in groups of four during the remainder of the study. All mice were acclimated to the colony room for at least two weeks prior to testing and were subsequently tested at an average age of 8 weeks of age. During the period of acclimation, mice were examined on a regular basis, handled, and weighed to assure adequate health and suitability. Mice were maintained on a 12/12 light/dark cycle. The room temperature was maintained between 20 and 23° C. with a relative humidity maintained between 30% and 70%. Chow and water were provided ad libitum for the duration of the study. In each test, animals were randomly assigned across treatment groups.
(§3) Distance traveled is measured by consecutive beam breaks.
(§4) Data was analyzed by analysis of variance (ANOVA) followed by Fisher PLSD post-hoc analysis when appropriate. An effect was considered significant if p<0.05. Outliers that fell above and below two standard deviations from the mean were removed from the final analysis.

In test [2] the test system is d-amphetamine/chlordiazepoxide mixture (AMPH/CDP)-induced hyperactivity in mice. Briefly: d-Amphetamine/chlordiazepoxide (AMPH/CDP) hyperactivity test (Example 4A). The format is in vivo, mouse. To be noted: test condition AMPH/CDP; 400 mg/kg IP, 30 min pretreatment. As for the experimental part:
as §1, §2
(§5) d-Amphetamine sulfate (Sigma, 4.0 mg/kg) and chlordiazepoxide (CDP; Sigma, 2.5 mg/kg) were dissolved in sterile water and were administered intraperitoneally at a dose volume of 10 ml/kg.
as §3, §4

Test [3] relates to basal locomotor activity of mice. Briefly: Open field, basal locomotor activity of mice (Example 4B). The format is in vivo, mouse. Particulars: test condition water; 400 mg/kg IP. As for the experimental part:
as §1
(§6) Male C57B1/6J mice (8 weeks old) from Jackson Laboratories (Bar Harbor, Me.) were used in this study. Upon receipt, mice were assigned unique identification numbers (tail marked) and were group housed (4 mice/cage) in OPTI mouse ventilated cages. All animals remained housed in groups of four during the remainder of the study. During the period of acclimation, mice were examined on a regular basis, handled, and weighed to assure adequate health and suitability. Mice were maintained on a 12/12 light/dark cycle. The room temperature was maintained between 20 and 23° C. with a relative humidity maintained between 30% and 70%. Chow and water were provided ad libitum for the duration of the study. In each test, animals were randomly assigned across treatment groups.
as §3, §4

Test [4] deals with d-amphetamine/chlordiazepoxide mixture (AMPH/CDP)-induced hyperactivity in mice. Briefly: d-Amphetamine/chlordiazepoxide (AMPH/CDP) hyperactivity test (Example 4B). To be noted: test condition AMPH/CDP; 400 mg/kg IP. The format is in vivo, mouse. How it is done: as §1, §6, §5, §3, §4
The test system of test [5] is chronic mild stress (CMS) model of depression. In words: Chronic mild stress (CMS) model of depression, sucrose consumption (Example 2). To be noted: imipramine 10 mg/kg IP once daily, stressed animals. The format is in vivo, rat. From the text: This study evaluated the antidepressant effect of cariprazine hydrochloride in the chronic mild stress (CMS) model of depression. A comparison to the efficacy of the tricyciclic antidepressant compound imipramine was also made.
Male Wistar rats were adapted to laboratory and housing conditions for 3 weeks, followed by adoption to consumption of 1% sucrose solution for an additional 5 weeks before being separated into control and to-be-stressed groups.
Chronic stress was applied to the allocated group for seven weeks. The following stressors were used: food and/or water deprivation, cage tilting (45 degrees backwards), intermittent illumination, paired housing, soiled cage (250 mL of tap water in sawdust bedding), stroboscopic illumination (150 flashed per minute), no stress. All stressors were 10-14 hours in duration and were applied individually and continuously, once or twice weekly, during the day and at night.
Consumption of sucrose solution was measured in 1-hour tests conducted on all animals (i.e., controls and stressed) once weekly throughout the entire experiment. The tests were preceded by 14 hours of food and water deprivation. On the basis of their sucrose intakes following the initial 2 weeks of stress, both stressed and control animals received once-daily chronic (5 weeks) IP injections of vehicle (1% methyl cellulose, 1 mL/kg), cariprazine hydrochloride (0.0625, 0.25 or 1.0 mg/kg), or imipramine (10 mg/kg) as reference treatment. […] These animals were considered weak responders/non-responders and were eliminated from the analysis.

Test [6] shares this test system. Briefly: Chronic mild stress (CMS) model of depression, sucrose consumption (Example 3). The format is in vivo, rat. To be noted: imipramine, reference treatment in parallel studies. The source says:
Similar to the study described in Example 2, additional studies were undertaken to further evaluate the antidepressant effect of cariprazine hydrochloride, administered alone, or in combination with escitalopram oxalate, in a chronic mild stress model of depression
In the chronic mild stress (CMS) model, rats subjected to a variety of mild stressors for a prolonged period of time show a substantial decrease in their responsiveness to rewarding stimuli. This deficit is usually monitored by a decrease in the consumption of a 1% sucrose solution, but can also be seen in other tests, such as place preference conditioning or intracranial self-stimulation. The subsensitivity to reward appears to reflect anhedonia (inability to experience pleasure), which is a core symptom of major depressive disorders. Clinically approved antidepressants have shown activity in this animal model by reversing the effects of CMS on sucrose consumption. See, e.g., Sanchez C, Gruca P, Papp M, Behavioural Pharmacology 14, 465-470, 2003.
Male Wistar rats (Charles River, Germany) were brought into the laboratory two months before the start of the experiment. Except as described below, the animals were singly housed with food and water freely available, and were maintained on a 12-h light/dark and in a constant temperature (22±2° C.) and humidity (50±5%) conditions.
The animals were first trained to consume a 1% sucrose solution; training consisted of nine 1 h baseline tests in which sucrose was presented, in the home cage, following 14 h food and water deprivation. The sucrose intake was measured by weighing pre-weighed bottles containing the sucrose solution, at the end of the test. Subsequently, sucrose consumption was monitored, under similar conditions, at weekly intervals throughout the whole experiment.
On the basis of their sucrose intakes in the final baseline test, the animals were divided into two matched groups. One group of animals was subjected to the chronic mild stress procedure for a period of 7 consecutive weeks. Each week of stress regime consisted of: two periods of food or water deprivation, two periods of 45 degree cage tilt, two periods of intermittent illumination (lights on and off every 2 h), two periods of soiled cage (250 ml water in sawdust bedding), one period of paired housing, two periods of low intensity stroboscopic illumination (150 flashes/min), and three periods of no stress. All stressors were 10-14 h of duration and were applied individually and continuously, day and night. Control animals were housed in separate rooms and had no contact with the stressed animals. They were deprived of food and water for 14 h preceding each sucrose test, but otherwise food and water were freely available in the home cage.

The text below walks through data of patent publication US20110015208A1, “PHARMACEUTICAL COMPOSITIONS CONTAINING DOPAMINE RECEPTOR LIGANDS AND METHODS OF TREATMENT USING DOPAMINE RECEPTOR LIGANDS” (priority 2007, published 2011).

As to `CCCC(CCC)C(=O)O` [Valproate], the “Total Distance Traveled [mean ± SEM]” value in test [1] was 4471 ± 298 cm/60 min; in test [2], 17496 ± 1788 cm/60 min; in test [3] it was 3365 ± 612 cm/60 min; in test [4] it was 18478 ± 2961 cm/60 min.

With `CN(C)CCCN1c2ccccc2CCc2ccccc21` [imipramine, reference compound], the “CMS-induced decrease in consumption of 1% sucrose solution” value in test [5] (5 weeks) is listed as “fully reversed”. Besides, the “onset of action: effect on sucrose drinking evident at” value in test [5] stood at 3 Week. Also, the “time until effect on sucrose consumption reached significance” value in test [6] is reported as “after three weeks of administration”.
